Measurements reported in patent publication US20220221458A1, “NOROVIRUS-BINDING PEPTIDE” (Kao Corporation, priority 2019, published 2022).

test system: norovirus VLPs (GII.4, GII.3, GII.17); test: In vitro selection by cDNA display against VLPs with appearance frequency analysis of sequences; conditions: count among peptide aptamer sequences obtained after in vitro selection cycles (7 cycles GII.4, 5 cycles GII.3 and GII.17)
Protocol: The constructed cDNA display and VLPs were incubated in 100 μL of a dialysis selection buffer (20 mM HEPES (pH 7.4), 150 mM NaCl, and 0.05% s Tween 20) at the concentrations shown in Table 9 below at 25° C. for 30 minutes. Subsequently, the resultant was diluted to 1 mL with the dialysis selection buffer, and was put in Float-A-Lyzer G2 Dialysis Device CE, 1000kD MWCO (manufactured by Spectrum Laboratories, Inc.) and was dialyzed with 1 L of the dialysis selection buffer as the external solution at 25° C. During the dialysis, the external solution was replaced with new one 3 times every 2 hours, and the dialysis was performed overnight (for 8 hours) after the 4th replacement. The dialysis product was concentrated with Amicon Ultra 100K (manufactured by Merck Millipore S.A.S.) at 14,000×g for 5 minutes.
To an immunoplate (C-BOTTOM, CLEAR, MICROLON (registered trademark), HIGH BINDING, manufactured by Greiner Bio-One), 100 μL of 3 μg/mL GII.3 or GII.17 VLP solution was added and immobilization was performed at 4° C. overnight. Subsequently, the solution was discarded, and 200 μL of a blocking agent (EMD Millipore™ Blok™ NSB Blocking agents, Thermo Fisher Scientific) was added, followed by gently stirring at room temperature for 2 hours for blocking. On this occasion, wells not immobilizing the VLP were also subjected to similar blocking to be used in preselection.
The solution was discarded from the wells, the wells were washed with 200 μL of a wash buffer (10 mM Hepes (pH 7.4), 150 mM NaCl, and 0.05% Tween 20) three times, and 100 μL of cDNA display (constructed from 1.5 pmol of mRNA-linker) was then put in the wells not immobilizing the VLP, followed by gently stirring at room temperature for 30 minutes to perform preselection. Subsequently, the supernatant containing cDNA display that had not bound to the blocking agent was put in the wells immobilizing the VLP, followed by gently stirring at room temperature for 30 minutes to be bound to the VLP. The supernatant was discarded, washing with 100 μL of the wash buffer was performed four times, and 100 μL of a 5′ SDS solution was then added, followed by incubation at 50° C. for 15 minutes to elute the bound cDNA display.
Subsequently, the VLP-cDNA display complex obtained above was diluted to 100 μL with a dialysis selection buffer, and 10 μL of a coprecipitating agent (Quick-Precip Plus Solution, manufactured by EdgeBio) and 220 μL of 100% ethanol were added, followed by centrifugation at 20,000×g for 5 minutes. Subsequently, the supernatant was discarded, and 1 mL of 70, ethanol was added for rinsing. […] The PCR program was (a) 98° C. for 2 minutes, (b) 95° C. for 20 seconds, (c) 69° C. for 20 seconds, (d) 72° C. for 20 seconds (steps (b) to (d) were performed 25 cycles), and (e) 72° C. for 1 minute.
After the in vitro selection cycle (7 cycles for GII.4 and 5 cycles for GII.3 and GII.17 based on the libraries of 7 cycles obtained by GII.4 dialysis), a sequence library was prepared by the following method, and the sequence information was analyzed. The preparation of the sequence library and the sequencing were performed according to the 16S Metagenomic Sequencing Library Preparation protocol (manufactured by Illumina, Inc.).
The Fastq file of the obtained sequence was converted to a Fasta file, all of the obtained sequences were simultaneously translated from the first base of the start codon (ATG) at position 115 to the third base of the cysteine codon (TGC) at position 156 of the library sequence (SEQ ID NO: 279) using software MEGA.

Compared with “160 (WAGHRH; Designed peptide) [compound 160]”, “188 (HFRRRV; Designed peptide) [compound 188]” is lower in “Appearance Frequency” value: 7 for the first, 6 for the second.

“133 (NKYSHR; Designed peptide) [compound 133]” and “154 (TVLHHR; Designed peptide) [compound 154]” are the same in “Appearance Frequency” value: 7 for the first, 7 for the second.

“138 (QLHRHK; Designed peptide) [compound 138]” and “119 (HYRSKS; Designed peptide) [compound 119]” are the same in “Appearance Frequency” value: 7 for the first, 7 for the second.

“227 (QFSQLG; Designed peptide) [compound 227]” and “223 (NSRYFT; Designed peptide) [compound 223]” are the same in “Appearance Frequency” value: 6 for the first, 6 for the second.

First: 152 (SWPFCT; Designed peptide) [compound 152]
Second: 184 (GPCNSA; Designed peptide) [compound 184]
The “Appearance Frequency” value of the first is higher: 7 for the first, 6 for the second.

Compared with “191 (HLAHKK; Designed peptide) [compound 191]”, “80 (HICIRR; Designed peptide) [compound 80]” is higher in “Appearance Frequency” value: 6 for the first, 8 for the second.

“247 (SEHNRY; Designed peptide) [compound 247]” and “218 (NGHSHA; Designed peptide) [compound 218]” are the same in “Appearance Frequency” value: 6 for the first, 6 for the second.

“233 (RGTMWL; Designed peptide) [compound 233]” and “250 (SKVIRW; Designed peptide) [compound 250]” are the same in “Appearance Frequency” value: 6 for the first, 6 for the second.

“212 (MDHEMF; Designed peptide) [compound 212]” and “203 (ITLIDT; Designed peptide) [compound 203]” are the same in “Appearance Frequency” value: 6 for the first, 6 for the second.

Compared with “166 (ATITVW; Designed peptide) [compound 166]”, “144 (RRGDNY; Designed peptide) [compound 144]” is higher in “Appearance Frequency” value: 6 for the first, 7 for the second.

Compared with “16 (LSKHSR; Designed peptide) [compound 16]”, “226 (QCELKD; Designed peptide) [compound 226]” is lower in “Appearance Frequency” value: 13 for the first, 6 for the second.

Compared with “214 (MSNKMV; Designed peptide) [compound 214]”, “49 (VETDGH; Designed peptide) [compound 49]” is higher in “Appearance Frequency” value: 6 for the first, 10 for the second.

Compared with “35 (TKRQNL; Designed peptide) [compound 35]”, “151 (STYRSW; Designed peptide) [compound 151]” is lower in “Appearance Frequency” value: 11 for the first, 7 for the second.

Compared with “68 (SSPRSH; Designed peptide) [compound 68]”, “51 (VMCPNR; Designed peptide) [compound 51]” is higher in “Appearance Frequency” value: 9 for the first, 10 for the second.

First: 81 (HRSNGH; Designed peptide) [compound 81]
Second: 27 (VHYRQT; Designed peptide) [compound 27]
The “Appearance Frequency” value of the first is lower: 8 for the first, 12 for the second.

Going from “37 (WEVALH; Designed peptide) [compound 37]” to “100 (WDRPAF; Designed peptide) [compound 100]”, the “Appearance Frequency” value falls from 11 to 8.

First: 127 (LISRHD; Designed peptide) [compound 127]
Second: 174 (FGFREL; Designed peptide) [compound 174]
The “Appearance Frequency” value of the first is higher: 7 for the first, 6 for the second.

First: 95 (VGHVNW; Designed peptide) [compound 95]
Second: 41 (GNIPGH; Designed peptide) [compound 41]
The “Appearance Frequency” value of the first is lower: 8 for the first, 10 for the second.

Going from “3 (GHRLHS; Designed peptide) [compound 3]” to “26 (TWDLTL; Designed peptide) [compound 26]”, the “Appearance Frequency” value falls from 21 to 12.

Compared with “222 (NSIAHR; Designed peptide) [compound 222]”, “24 (LRSGVN; Designed peptide) [compound 24]” is higher in “Appearance Frequency” value: 6 for the first, 12 for the second.

“217 (NDHDHH; Designed peptide) [compound 217]” and “251 (SKYTAL; Designed peptide) [compound 251]” are the same in “Appearance Frequency” value: 6 for the first, 6 for the second.

First: 146 (RSAAGD; Designed peptide) [compound 146]
Second: 195 (HSSLVT; Designed peptide) [compound 195]
The “Appearance Frequency” value of the first is higher: 7 for the first, 6 for the second.

Going from “205 (KHAWDL; Designed peptide) [compound 205]” to “99 (VYIMNH; Designed peptide) [compound 99]”, the “Appearance Frequency” value rises from 6 to 8.

Going from “150 (STVRHR; Designed peptide) [compound 150]” to “88 (SITVLY; Designed peptide) [compound 88]”, the “Appearance Frequency” value rises from 7 to 8.

Going from “14 (RSVRMH; Designed peptide) [compound 14]” to “46 (RVSLYD; Designed peptide) [compound 46]”, the “Appearance Frequency” value falls from 14 to 10.

“89 (SRSICS; Designed peptide) [compound 89]” and “76 (GGSHST; Designed peptide) [compound 76]” are the same in “Appearance Frequency” value: 8 for the first, 8 for the second.

First: 236 (RIVLES; Designed peptide) [compound 236]
Second: 45 (RPFTML; Designed peptide) [compound 45]
The “Appearance Frequency” value of the first is lower: 6 for the first, 10 for the second.

Going from “118 (HSSFSS; Designed peptide) [compound 118]” to “172 (ECHHVH; Designed peptide) [compound 172]”, the “Appearance Frequency” value falls from 7 to 6.

“207 (LHHSSY; Designed peptide) [compound 207]” and “261 (VPFPHH; Designed peptide) [compound 261]” are the same in “Appearance Frequency” value: 6 for the first, 6 for the second.

“230 (QYCFVG; Designed peptide) [compound 230]” and “201 (IKAHTR; Designed peptide) [compound 201]” are the same in “Appearance Frequency” value: 6 for the first, 6 for the second.

First: 256 (STSVDW; Designed peptide) [compound 256]
Second: 70 (AVGCHV; Designed peptide) [compound 70]
The “Appearance Frequency” value of the first is lower: 6 for the first, 8 for the second.

Compared with “21 (GKFFCH; Designed peptide) [compound 21]”, “198 (HYRARY; Designed peptide) [compound 198]” is lower in “Appearance Frequency” value: 12 for the first, 6 for the second.

Going from “67 (SKHLAG; Designed peptide) [compound 67]” to “267 (YKASHG; Designed peptide) [compound 267]”, the “Appearance Frequency” value falls from 9 to 6.
